Active and inactive are the calls of the source. The rule behind the calls is not given here.
Columns and labels:
Type in all cases: functional
Platelet [1] = assay: (§1) Antiplatelet activity in human platelet-rich plasma assessed as inhibition of collagen-induced aggregation at 100 uM incubated for 5 mins prior to collagen-challenge measured for 3 mins by turbidrometric analysis relative to control
Platelet [2] = assay: Antiplatelet activity in human platelet-rich plasma assessed as inhibition of arachidonic acid-induced aggregation at 100 uM incubated for 5 mins prior to arachidonic acid-challenge measured for 3 mins by turbidrometric analysis relative to control
[3] = as §1
[4] = Antiplatelet activity in human platelet-rich plasma assessed as inhibition of arachidonic acid-induced aggregation incubated for 5 mins prior to arachidonic acid-challenge measured for 3 mins by turbidrometric analysis

Compound	inhibition (Platelet [1])	inhibition (Platelet [2])	inhibition at 100 µM [3]	IC50 [4]
O=C(/C=C/c1cn(-c2ccccc2)nc1-c1ccncc1)NC1CC1	inactive	inactive		
O=C(/C=C/c1cn(-c2ccccc2)nc1-c1ccncc1)N1CCN(c2ccncc2)CC1		inactive	82.5%	
O=C(/C=C/c1cn(-c2ccccc2)nc1-c1ccncc1)N1CCN(c2cccc(Cl)c2)CC1	inactive	inactive		
COc1ccc(N2CCN(C(=O)/C=C/c3cn(-c4ccccc4)nc3-c3ccncc3)CC2)c(OC)c1OC	inactive	inactive		
O=C(/C=C/c1cn(-c2ccccc2)nc1-c1ccncc1)NCc1ccccc1			54.9%	20.2 µM
Cc1cccc(N2CCN(C(=O)/C=C/c3cn(-c4ccccc4)nc3-c3ccncc3)CC2)c1C	inactive	inactive		
O=C(/C=C/c1cn(-c2ccccc2)nc1-c1ccncc1)N1CCN(c2ccc(Cl)cc2)CC1	inactive	inactive		
CC(=O)Oc1ccccc1C(=O)O [ASPIRIN]				7.7 µM
COc1ccc(CNC(=O)/C=C/c2cn(-c3ccccc3)nc2-c2ccncc2)cc1	inactive	inactive		
O=C(/C=C/c1cn(-c2ccccc2)nc1-c1ccncc1)N1CCN(c2ccccc2)CC1	inactive	inactive		
CCOc1ccccc1N1CCN(C(=O)/C=C/c2cn(-c3ccccc3)nc2-c2ccncc2)CC1		inactive	42%	
O=C(/C=C/c1cn(-c2ccccc2)nc1-c1ccncc1)N1CCCCC1		Active		
O=C(/C=C/c1cn(-c2ccccc2)nc1-c1ccncc1)N1CCN(c2ncccn2)CC1		inactive	73.1%	
O=C(/C=C/c1cn(-c2ccccc2)nc1-c1ccncc1)N1CCN(C(=O)C2CCCO2)CC1 (stereo not drawn)		inactive	68.9%	
O=C(O)/C=C/c1cn(-c2ccccc2)nc1-c1ccncc1	inactive	inactive		
O=C(/C=C/c1cn(-c2ccccc2)nc1-c1ccncc1)NC1CCCCC1			71.8%	30.3 µM
O=C(/C=C/c1cn(-c2ccccc2)nc1-c1ccncc1)N1CCN(CCOCCO)CC1	inactive	inactive		
Cc1ccc(N2CCN(C(=O)/C=C/c3cn(-c4ccccc4)nc3-c3ccncc3)CC2)cc1	inactive	inactive		
O=C(/C=C/c1cn(-c2ccccc2)nc1-c1ccncc1)N1CCOCC1		Active		
O=C(/C=C/c1cn(-c2ccccc2)nc1-c1ccncc1)N1CCC(Cc2ccccc2)CC1	inactive	inactive		
COc1ccccc1N1CCN(C(=O)/C=C/c2cn(-c3ccccc3)nc2-c2ccncc2)CC1	inactive	inactive		
O=C(/C=C/c1cn(-c2ccccc2)nc1-c1ccncc1)N1CCN(C(=O)c2ccco2)CC1		inactive	50%	
O=C(/C=C/c1cn(-c2ccccc2)nc1-c1ccncc1)N1CCN(c2ccc(C(F)(F)F)cc2)CC1		inactive	25%	
